Measurements: US8569318B2, “Tetrahydro-pyrazolo[1,5-a]pyrido-pyrimidines as antagonists of serotonin 5-HT6 receptors, methods for the production and use thereof” (priority 2008, dated 2013)
Where a name gives a salt, the structure may show the parent alone.

What was measured:
[1] = target: recombinant human 5-HT6 receptors (Homo sapiens (Human), UniProt P50406); experiment: Competitive radioligand binding ([3H] Lysergic acid diethylamide) to serotonin 5-HT6 receptors, HeLa cell membranes; settings: for IC50: 1.5 nM [3H] Lysergic acid diethylamide, 120 min at 37° C.
Sequence of recombinant human 5-HT6 receptors (P50406 whole entry): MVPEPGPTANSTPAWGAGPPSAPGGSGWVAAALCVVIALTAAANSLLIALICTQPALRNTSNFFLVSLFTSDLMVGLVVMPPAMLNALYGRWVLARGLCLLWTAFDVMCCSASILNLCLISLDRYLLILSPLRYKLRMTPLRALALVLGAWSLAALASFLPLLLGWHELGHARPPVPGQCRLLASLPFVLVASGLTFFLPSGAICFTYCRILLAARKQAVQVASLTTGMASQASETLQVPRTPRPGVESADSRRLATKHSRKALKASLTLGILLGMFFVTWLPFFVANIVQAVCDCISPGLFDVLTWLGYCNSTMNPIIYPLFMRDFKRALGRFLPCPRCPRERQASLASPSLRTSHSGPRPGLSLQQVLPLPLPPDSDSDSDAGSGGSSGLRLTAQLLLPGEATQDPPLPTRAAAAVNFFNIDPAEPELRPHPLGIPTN
Procedure: Screening of the disclosed compounds for their potential ability to interact with serotonin 5-HT6 receptors was carried out by the method of radioligand binding. For this purpose membrane species were prepared from HeLa cells expressing recombinant human 5-HT6 receptors, by means of cells homogenization in glass homogenizer with subsequent separation of plasmatic membranes from cell nucli, mitochondria's and cell wreckages by differential centrifugation. Determination of tested compounds binding to 5-HT6 receptors was carried out according to the method described in [Monsma F J Jr, Shen Y, Ward R P, Hamblin M W and Sibley D R, Cloning and expression of a novel serotonin receptor with high affinity for tricyclic psychotropic drugs. Mol. Pharmacol. 43:320-327, 1993]. […] After the incubation the samples were filtered in vacuo on glass-microfiber filters G/F (Millipor, USA), filters were washed three times with cold solution of the medium and radioactivity was measured by scintillation counter MicroBeta 340 (PerkinElmer, USA). […] Methiothepin was used as a positive control. Binding of the tested compounds with the receptor was determined by their ability to displace the radioligand and was expressed in percent of displacement. The percent of displacement was calculated according to the following equation:
[formula] wherein: TA—was overall radioactivity in the presence of radioligand only, CA—was radioactivity in the presence of radioligand and tested compound and NA—was radioactivity in the presence of radioligand and Serotonin (5 μM).

mice = experiment: Passive Avoidance of mice in the Shuttle Chamber, memory disturbed by MK-801; type: in vivo; settings: MK-801 0.1 mg/kg, injected 30 minutes before training

| IC50 [1] | Ki ([1]; Ki=IC50/(1+[L]/KD)) | Structure (SMILES) | nootropic effect (enhancement of memory disturbed by MK-801) (mice) |
| --- | --- | --- | --- |
| 0.00461 µM |  | Cc1nn2c3c(cnc2c1S(=O)(=O)c1ccccc1)CNCC3 [1.1(1)] |  |
| 0.801 µM | 0.372 µM | CSc1nn2cc3c(nc2c1S(=O)(=O)c1ccccc1)CCN(C)C3 [2.2(2)] |  |
|  |  | Cc1nn2c3c(cnc2c1S(=O)(=O)c1ccccc1)CN(C)CC3 [1.1(3).HCl] | ability of active ingredient 1.1(3).HCl to produce nootropic effect |
| > 1 µM |  | CSc1nn2cc3c(nc2c1S(=O)(=O)c1ccc(F)cc1)CCN(C)C3 [2.2(3)] |  |
